For five compounds, IC50 results are on record in ChEMBL document CHEMBL1141483, “Design and synthesis of 1,3-diarylurea derivatives as selective cyclooxygenase (COX-2) inhibitors” (Bioorg Med Chem Lett, 2008).

Molecules are shown by their SMILES.

This assay concerns the target T1, Prostaglandin G/H synthase 1 (Ovis aries, UniProt P05979).
T1 sequence (P05979 whole entry): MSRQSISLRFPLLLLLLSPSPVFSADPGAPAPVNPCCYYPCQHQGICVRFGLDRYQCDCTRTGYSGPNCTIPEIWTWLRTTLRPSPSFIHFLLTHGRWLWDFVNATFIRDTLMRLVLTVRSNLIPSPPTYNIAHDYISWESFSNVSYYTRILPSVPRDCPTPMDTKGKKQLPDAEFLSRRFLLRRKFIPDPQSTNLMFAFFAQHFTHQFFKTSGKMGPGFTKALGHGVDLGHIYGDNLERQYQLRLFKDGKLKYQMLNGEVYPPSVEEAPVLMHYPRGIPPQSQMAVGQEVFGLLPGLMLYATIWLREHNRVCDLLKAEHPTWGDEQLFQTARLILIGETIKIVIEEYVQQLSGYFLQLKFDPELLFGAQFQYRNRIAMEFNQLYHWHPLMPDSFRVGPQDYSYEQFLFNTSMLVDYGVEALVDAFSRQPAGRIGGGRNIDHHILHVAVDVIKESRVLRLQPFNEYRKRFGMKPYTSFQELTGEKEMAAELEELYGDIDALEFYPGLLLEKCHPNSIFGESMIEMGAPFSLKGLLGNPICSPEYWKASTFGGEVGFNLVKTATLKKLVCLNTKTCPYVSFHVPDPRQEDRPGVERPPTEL
Description: Inhibition of ovine COX1 by chemiluminescent assay
Take `Cc1ccc(NC(=O)Nc2ccc(S(C)(=O)=O)cc2)cc1`: 12.5 µM corresponded to half-maximal inhibition (IC50).
To `CS(=O)(=O)c1ccc(NC(=O)Nc2ccccc2)cc1` belongs 9.2 µM; to `CS(=O)(=O)c1ccc(NC(=O)Nc2ccc(Cl)cc2)cc1`, 21.5 µM; to `CS(=O)(=O)c1ccc(NC(=O)Nc2ccc(F)cc2)cc1`, 21.8 µM.
Compound `COc1ccc(NC(=O)Nc2ccc(S(C)(=O)=O)cc2)cc1` gave a half-maximal inhibitory concentration (IC50) of 22.4 µM.
